Values of other authors, collected in patent publication US6864048B2, “Factorial chemical libraries” (Affymetrix, Inc., priority 1993, dated 2005).

Biological target: antibody
Settings: binding to the antibody; peptide identified by recursive retrosynthesis of a hexapeptide library

## DVPYDA
  Kd: 30 nM
